Laboratory results as given in US8097266B2, “Solvent systems for pour-on formulations for combating parasites” (Merial Limited, priority 2007, dated 2012).

Tests used:
[1] = Preliminary stability of Table 3 formulations at 50° C.; assay type: physicochemical; settings: addition of glycerol formal
Description: Larger batches (100 mL) of formulations were made for use in preliminary stability studies.
Eprinomectin was also included in the formulation studies at the same end product concentration as ivermectin (0.5% w/v). The formulations shown in Table 3 were monitored for stability.
In order to evaluate the stability of formulations, analytical methods (described below) were developed to assay each active ingredient and monitor any degradation.
This HPLC assay was developed as an external standardization method which involves volumetric dilution of an accurately weighed amount of standard material and sample. The chromatographic method comprises an isocratic elution and detection of analyte components using the run parameters below: […]

[2] = assay type: physicochemical
Description: In addition to examination of solutions for clarity, aged samples (2 months@ 25° C.) were examined chromatographically for degradation.
In order to elucidate possible degradation components, solutions of active components were subjected to forced degradation conditions of acid, base, and peroxide at elevated temperature.
Samples containing ivermectin and clorsulon were prepared in acetonitrile and subjected to acid (a few drops of phosphoric acid), alkaline (a few drops of 1N sodium hydroxide) and peroxide (a small amount of t-butyl peroxide or hydrogen peroxide) degradation conditions. Samples were first analyzed for signs of degradation after a few days at ambient temperature. If, after this time there were no signs of degradation the samples were further ‘stressed’ by storage at 40° C.

Relative stability of the two active compounds [2]	Molecule	Stabilization of eprinomectin in formulation [1]
–	eprinomectin	stabilized by the addition of glycerol formal
more stable	Nc1cc(C(Cl)=C(Cl)Cl)c(S(N)(=O)=O)cc1S(N)(=O)=O [clorsulon, 4-amino-6-trichloroethenyl-1,3-benzene disulfonamide]	–
